Test results as given in US20250127168A1, “METHOD FOR PATHOGENS, MICROORGANISMS, AND PARASITES INACTIVATION” (New York Blood Center, Inc., priority 2018, published 2025).

How the values were obtained:
Cytochrome C = Cytochrome C (Equus caballus, UniProt P00004); experiment: Reactivity with Cytochrome C (electrospray MS); format: biochemical; conditions: 8 μM protein; 0.1, 1, 10 mM compound; pH 7.0, 40° C.; 1, 4 and 30 h
Description: Using alkylating molecules to inactivate pathogens in blood product has potentially harmful side effect—their reaction with proteins may create neoantigens, i.e., they may become haptens. To assess the hapten potential of the compounds of Structure I, their ability to modify Cytochrome C was studied. Cytochrome C (MW of 12384 Da) was selected as a model protein because it contains a number of amino acids with nucleophilic side chains: 19 Lys, 2 Cys, 3 Asp, 9 Glu, 3 His, and 4 Tyr, which are potential targets for alkylation by the compounds of Structure I. Cytochrome C, 0.1 mg/mL (8 μM) solution in phosphate buffered saline was incubated with 0 (control), 0.1, 1, and 10 mM of compounds VI or X at pH 7.0 for 30 h at 40° C. Aliquots of the incubation mixtures were analyzed at 1, 4 and 30 h by electrospray mass spectrometry in the positive ionization mode with direct infusion into a LCQ Advantage mass spectrometer (Thermo-Finnigan, San Jose, CA) for the formation of covalent adducts of the protein with the test compounds.

[1] = Storage stability of formulated compounds; format: physicochemical
Description: The solutions of the free bases of the compound of Structure I are alkaline, and can absorb atmospheric carbon dioxide, which can compromise the stability of the solutions and accelerate their hydrolysis or other degradation. The free bases of the compounds of Structure I may be stabilized by addition of small amounts of basic compounds, for example of sodium hydroxide.
The compounds of Structure I can be converted to solid solutions by quick solidification by cooling of their solution in compounds which are solid at room temperature. For example, if compound VI is added, in amount of up to 3% to melted polyethylene glycol, and the resulted solution is cooled quickly, preferably in thin film, a solid solution of compound VI is formed. […] The stability of the solid solutions can be further enhanced by addition of traces of strong bases, as for example, of sodium hydroxide. The preferred solids for the preparing of solid solution of compounds of Structure I have melting points above 40° C. and below 120° C., are well soluble in aqueous media, are neutral in chemical character, and have no adverse effect on the sample to be treated by the process, or on its intended use.

[2] = Neutralization of compound X by ethyl 2-mercaptoacetate (LCMS); format: physicochemical; conditions: PBS, RT; for Peak Areas (LCMS): 100 μM X + 10 mM ethyl 2-mercaptoacetate
Method: 100 μM solution of compound X in phosphate buffered saline was incubated at room temperature with 10 mM of ethyl-2-mercaptoacetate, and the change of the concentration of compound X, as well as the formation of the intermediate compound of neutralization (XXI) and the final compound of neutralization XXII was determined by LCMS analysis of the mixture. The reaction scheme of neutralization is presented below. The peak areas of compound X, intermediate neutralization product, Q1 (compound XXI) and final neutralization product, Q2 (compound XXII) are presented in the Table 8 below, and in FIG. 18.

[3] = Neutralization of compound X with thiophenol (LCMS); conditions: for ratio of the peak areas of compounds X, XXVI and XXVII: 100 μM X, 10 mM thiophenol, PBS
Description: In the right panel are shown the mass spectra of the corresponding peaks.

[4] = Neutralization of compound X with glutathione; conditions: in presence of glutathione, same conditions
[5] = Binding of compound X to sulfonic cation exchange resin (Purolite NRW160, Na+ form) through ion pairs; format: physicochemical; conditions: 50 mg dry beads in one mL of 100 μM solution in PBS
Method: Purolite NRW160 polystyrene divinylbenzene cross-linked resin functionalized with sulfonic groups in the H^+ form, 500 g was transferred into the Na^+ form by the following steps: The beads were washed on a vacuum filter and under a sterile hood with 3 volumes of saturated NaCl solution, followed by two volume of 1 M NaOH. After NaOH sterilization beads were washed by sterile deionized water until the pH of the rinsings became neutral. The beads were incubated with two volumes of methanol for 15 min and after removing of methanol were rinsed again with three volumes of sterile deionized water. After final incubation in methanol (2 volumes) the alcohol was removed by filtration and beads were dried under the vacuum.
Dry beads, 50 mg were added to one mL of 100 μM solution of compound X in phosphate buffered saline.

Chain of Cytochrome C (P00004 whole entry): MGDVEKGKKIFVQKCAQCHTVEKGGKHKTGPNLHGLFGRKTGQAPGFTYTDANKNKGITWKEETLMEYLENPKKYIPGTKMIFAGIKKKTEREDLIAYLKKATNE

Which “covalent adducts with cytochrome C” value (Cytochrome C) does the source give for `CN(CCCCN(C)CCCN1CC1)CCCN1CC1` [Compound VI, N^1,N^4-bis(3-(aziridin-1-yl)propyl)-N^1,N^4-dimethylbutane-1,4-diamine] here?
Its value is “absence of covalent adducts”.

And the storage stability [1]?
Its storage stability is “significantly higher storage stability”.

Which “first order rate constant of concentration decrease” value ([2]; 10 mM ethyl 2-mercaptoacetate) does the source give for `CN(CCCCN(C)CCCN1CC1)CCCN(C)CCCN1CC1` [Compound X] here?
Its value is 0.022 min⁻¹.

And the “Peak Areas (LCMS)” value ([2]; Time 6 min)?
Its value is 161.9.

And the “Peak Areas (LCMS)” value ([2]; Time 14.5 min)?
The value was 128.8.

And the “Peak Areas (LCMS)” value ([2]; Time 23.1 min)?
Its value is 123.1.

And the “Peak Areas (LCMS)” value ([2]; Time 31.6 min)?
The value was 96.3.

What about the “Peak Areas (LCMS)” value ([2]; Time 40.2 min) of the same molecule?
The value was 85.

What about the “Peak Areas (LCMS)” value ([2]; Time 48.7 min) of the same molecule?
The value was 76.9.

And the “Peak Areas (LCMS)” value ([2]; Time 57.3 min)?
The value was 52.9.

And the “Peak Areas (LCMS)” value ([2]; Time 65.8 min)?
The value was 42.7.

And the “Peak Areas (LCMS)” value ([2]; Time 74.3 min)?
Its value is 33.1.

And the “Peak Areas (LCMS)” value ([2]; Time 82.9 min)?
The value was 26.

What about the “Peak Areas (LCMS)” value ([2]; Time 91.4 min) of the same molecule?
Its value is 23.2.

And the “Peak Areas (LCMS)” value ([2]; Time 100.0 min)?
The value was 17.4.

What about the “Peak Areas (LCMS)” value ([2]; Time 108.5 min) of the same molecule?
Its value is 14.

And the “Peak Areas (LCMS)” value ([2]; Time 117.1 min)?
Its value is 11.5.

What about the “Peak Areas (LCMS)” value ([2]; Time 125.6 min) of the same molecule?
The value was 7.6.

And the “ratio of the peak areas of compounds X, XXVI and XXVII” value (“ratio … XXVI and XXVII” for short) ([3]; after 1 min and 40 sec (100 sec))?
Its value is 21.

What about the “ratio … XXVI and XXVII” value ([3]; after 10 min) of the same molecule?
The value was 3.

And the “ratio … XXVI and XXVII” value ([3]; after 20 min)?
The value was 0.5.

What about the “half-life of compound X” value ([3]; in presence of 10 mM of thiophenol) of the same molecule?
Its value is “below 1 min”.

And the “half-life of compound X” value [4]?
The value was 7.5 h.

What about the “concentration of compound X in the supernatant” value [5] of the same molecule?
Its value is “below 30 nM”.

What about the “covalent adducts with cytochrome C” value (Cytochrome C) of the same molecule?
Its value is “absence of covalent adducts”.

What about the “long term storage stability” value ([1]; glycerol solution, addition of 0.1% of sodium hydroxide) of the same molecule?
The value was “significantly stabilized”.
